Laboratory results published in US6159940A, “Method for modulating hemopoiesis” (Immunotech Developments Inc., priority 1999, dated 2000).

Experiments:
Allergenicity study = type: in vivo, rabbits; conditions: subcutaneous 0.01% solution for 5 days
Protocol: The study was performed in 12 rabbits, who received subcutaneous injections of 0.01% H-Ile-Glu-Trp-OH solution for 5 days. The control animals were injected with horse serum.

Acute toxicity in mice = type: in vivo
Protocol: An acute toxicity study of the peptide was carried out in compliance with methodical recommendations of the Pharmacological Committee of the Russian Federation (RF), "Requirements to Preclinical Study of General Toxic Action of New Pharmacological Substances", M., 1985.
(§1) To establish the safety of use of the peptides, toxicity tests were performed. Toxicity tests where performed in accordance Pharmacological Committee Russian Federation (RF) "guidelines for the pre-clinical study of general toxic activity of new pharmacological compounds". M., 1985.
Acute toxicity was studied in 120 mice (60 males, 60 females). Ld50 was not reached with the dose 10000 times as high as the therapeutic one. The preferred therapeutic dose is 0.001-0.1 mg/kg.

[1] = Acute toxicity in guinea pigs; type: in vivo; conditions: 20 guinea pigs
Protocol: as §1
Acute toxicity was studied in 20 guinea pigs and 6 dogs. […] The drug has a wide therapeutic range.

[2] = Effect on kidney function (anti-diuretic activity); parameters: species or system white mice; conditions: mouse, in vivo
Description: The anti-diuretic activity of H-Ile-Glu-Trp-OH was studied in 40 white mice.

[3] = Local irritating effect, guinea pigs; type: in vivo
Description: The local irritating effect of H-Ile-Glu-Trp-OH was studied in 20 guinea pigs and 5 rabbits.

T-cell = T-cell count in spleen, spontaneous rosette formation with sheep erythrocytes (E-FRC); type: in vivo, (CBA×C57BL)F1 mice
Protocol: (§2) Females and male (CBA×C57BL)F1 mice, aged about 2.5 months weighing about 20 g, were irradiated with gamma-rays using a "Luch-1" apparatus. Immunological activity was assessed according to Jerne (Antibody Forming Cells count--AFC). T-cell count in spleen was determined by the method of spontaneous rosette formation with sheep erythrocytes (E-FRC). The peptide was injected intramuscularly.
(§3) Mice were irradiated in a dose of 2 Gy, the peptide was injected in the dose of 10 μg/kg according to the following scheme (to determine T-cell count by the method of spontaneous rosette formation): 1 time--an hour after the irradiation; 2 times--an hour, and a day after irradiation; 3 times--an hour, a day, and two days after the irradiation; 4 times--an hour, a day, two days and three days after the irradiation. The intact mice recieved the peptide 3 or 4 times. The control group (2 Gy) recieved injections of physiological solution according to the same schedule. On completion of the treatment course, 10 mice from each group were immunized with sheep erythrocytes (SE) and 4-5 days later AFC counts were determined in their spleens. The rest of the mice were used to find T-cell count by the method of spontaneous rosette formation. The state of the organs of immune system (spleen and thymus) in mice with radiation immunodeficiency against the background of H-Ile-Glu-Trp-OH treatment was also listed by nucleated cell counts in thymus and spleen per mg of organ weight. AFC/mg Spleen weight is presented as an average of two experiments.

hemoglobin, erythrocytes = assay: Erythropoiesis in irradiated mice (4 Gy); type: in vivo; conditions: for Hemoglobin Content in blood: 4 Gy
Description: The effect of the peptide on erythropoiesis in irradiated mice (4 Gy) was also studied. The mice were irradiated and treated with the peptide as in Example 7.

Antibody Forming Cells = Antibody Forming Cells count (Jerne) in spleen after immunization with sheep erythrocytes; type: in vivo, (CBA×C57BL)F1 mice
Protocol: as §2, §3

[4] = Chronic toxicity: peritheric blood and internals, 30 days, rabbits; type: in vivo; conditions: once daily for 30 days
Protocol: II.1 The H-Ile-Glu-Trp-OH effect on the composition and properties of the peritheric blood, the morphological state of the internals.
The drug was injected once daily for 30 days.
The test animals were 20 rabbits and 40 guinea pigs.

Thymoma EL-4 cells = Thymoma EL-4 cells incubated with peptide and oxyurea, transplanted to mice: tumor growth and survival; type: in vivo, C57B1 mice
Protocol: The Thymoma EL-4 cells were extracted from the abdomen cavity of C57B1 mice at the 7th day after transplantation. The suspension was washed by centrifugation in the medium RPMI. Then the cells were resuspended in the growth medium (RPMI+10% of embryo serum+0.1% penicillin/streptomycin) and were split in culture flasks 5 ml each ([…] per flask). 2 mg of the preparation were added (20 μl) to each probe. After 18 hours of incubation (37 degrees Celsius CO2), OU was added to the half of probes (1 mg per 5 ml). Incubation was done for 1 more hour in the same conditions and then cells were washed out by centrifugation in the medium RPMI. The precipitated cells were resuspended in calculation 1 ml per 0.2 ml of RPMI medium and then transplanted to the mice C57B1 under the back skin.
The taking of the measurements of the size of the tumor was started after the knot became visible. The tumor was measured every day until it was impossible to measure. The survival ability of the mice was examined during 60 days after transplantation. Mice that survived after this period were considered to be cured. Each experimental group consisted of 6 animals.

[5] = 60 days after transplantation of treated EL-4 cells

For H-Ile-Glu-Trp-OH, the “reaction on the injection sites” value (Allergenicity study) was “No macroscopic reaction”, the Ld50 (Acute toxicity in mice; 120 mice) was > 10000 times as high as the therapeutic one and the acute toxic effect (Acute toxicity in mice; intraperitoneal injection of a 10,000-fold dose) was “did not cause an acute toxic effect”. For the same substance, the acute toxicity [1] was “No toxic effects were observed”, the anti-diuretic activity [2] was “not to have any anti-diuretic activity” and the local irritating effect [3] was “no local irritating effect”. For the same substance, the “T-Cell Count, column 1” value (T-cell; 2 Gy, 1 Injection) was 34.5 ± 1.7 10^3 /mg Spleen, the “T-Cell Count, column 1” value (T-cell; 2 Gy, 2 Injection) was 35.6 ± 1.8 10^3 /mg Spleen and the “T-Cell Count, column 1” value (T-cell; 2 Gy, 3 Injection) was 45.3 ± 3.4 10^3 /mg Spleen. For the same substance, the “T-Cell Count, column 2” value (T-cell; 2 Gy, 3 Injection) was 23.2 ± 3.7 10^3 /mg Spleen, the “T-Cell Count, column 1” value (T-cell; 2 Gy, 4 Injection) was 48.4 ± 2.5 10^3 /mg Spleen and the “T-Cell Count, column 2” value (T-cell; 2 Gy, 4 Injection) was 13.0 ± 0.8 10^3 /mg Spleen. The “T-Cell Count, column 2” value (T-cell; intact mice, 3 Injections) was 12.7 ± 1.5 10^3 /mg Spleen, the “T-Cell Count, column 2” value (T-cell; intact mice, 4 Injections) was 18.7 ± 5.8 10^3 /mg Spleen and the “Erythrocyte counts, test versus control groups” value (hemoglobin, erythrocytes; 4 Gy mice) was “did not differ”. For the same substance, the “restoration of hemoglobin level” value (hemoglobin, erythrocytes; 4 Gy treated mice (control: by day 14)) was “become normal by the 11th day”, the “Hemoglobin Content in blood” value (hemoglobin, erythrocytes; scheme 2, 1 Time, Day 7) was 9.4 ± 0.8 r/dl and the “Hemoglobin Content in blood” value (hemoglobin, erythrocytes; scheme 2, 1 Time, Day 11) was 12.6 ± 0.1 r/dl. The “Hemoglobin Content in blood” value (hemoglobin, erythrocytes; scheme 2, 1 Time, Day 14) was 11.8 ± 0.5 r/dl, the “Hemoglobin Content in blood” value (hemoglobin, erythrocytes; scheme 2, 1 Time, Day 18) was 12.1 ± 0.1 r/dl and the “Hemoglobin Content in blood” value (hemoglobin, erythrocytes; scheme 2, 1 Time, Day 21) was 12.1 ± 0.4 r/dl. The “Hemoglobin Content in blood” value (hemoglobin, erythrocytes; scheme 2, 2 Times, Day 7) was 9.6 ± 0.4 r/dl, the “Hemoglobin Content in blood” value (hemoglobin, erythrocytes; scheme 2, 2 Times, Day 11) was 12.0 ± 0.1 r/dl and the “Hemoglobin Content in blood” value (hemoglobin, erythrocytes; scheme 2, 2 Times, Day 14) was 10.8 ± 0.8 r/dl. The “Hemoglobin Content in blood” value (hemoglobin, erythrocytes; scheme 2, 2 Times, Day 18) was 11.5 ± 0.6 r/dl, the “Hemoglobin Content in blood” value (hemoglobin, erythrocytes; scheme 2, 2 Times, Day 21) was 11.7 ± 0.6 r/dl and the “Hemoglobin Content in blood” value (hemoglobin, erythrocytes; scheme 2, 3 Times, Day 7) was 10.15 ± 0.8 r/dl. For the same substance, the “Hemoglobin Content in blood” value (hemoglobin, erythrocytes; scheme 2, 3 Times, Day 11) was 11.9 ± 0.4 r/dl, the “Hemoglobin Content in blood” value (hemoglobin, erythrocytes; scheme 2, 3 Times, Day 14) was 12.1 ± 0.2 r/dl and the “Hemoglobin Content in blood” value (hemoglobin, erythrocytes; scheme 2, 3 Times, Day 18) was 11.7 ± 0.2 r/dl. The “Hemoglobin Content in blood” value (hemoglobin, erythrocytes; scheme 2, 3 Times, Day 21) was 11.9 ± 0.3 r/dl, the “Hemoglobin Content in blood” value (hemoglobin, erythrocytes; scheme 2, 4 Times, Day 7) was 14.4 ± 0.9 r/dl and the “Hemoglobin Content in blood” value (hemoglobin, erythrocytes; scheme 2, 4 Times, Day 11) was 12.2 ± 0.1 r/dl. For the same substance, the “Hemoglobin Content in blood” value (hemoglobin, erythrocytes; scheme 2, 4 Times, Day 14) was 12.0 ± 0.2 r/dl, the “Hemoglobin Content in blood” value (hemoglobin, erythrocytes; scheme 2, 4 Times, Day 18) was 11.7 ± 0.4 r/dl and the “Hemoglobin Content in blood” value (hemoglobin, erythrocytes; scheme 2, 4 Times, Day 21) was 12.0 ± 0.6 r/dl. The “AFC/mg Spleen” value (Antibody Forming Cells; 2 Gy, 10 μg/kg i.m., 3 Injection) was 152.4 ± 4.1, the “AFC/mg Spleen” value (Antibody Forming Cells; 2 Gy, 10 μg/kg i.m., 4 Injection) was 158.1 ± 7.1 and the “AFC/mg Spleen” value (Antibody Forming Cells; intact mice, 3 Injections) was 621.1 ± 14.2. The “AFC/mg Spleen” value (Antibody Forming Cells; intact mice, 4 Injections) was 676.1 ± 47.5, the AFC increase (Antibody Forming Cells; intact mice, humoral response to SE) was 5 times and the “number of antibody forming cells” value (Antibody Forming Cells; irradiated mice, 3 and 4 injections) was “practically doubled”. For the same substance, the “pathologic changes in the body or peritheric blood” value [4] was “did not cause any pathologic changes”, the “% of Survival” value (Thymoma EL-4 cells; [5]) was 16.6% and the “Number of Survived Mice From 6” value (Thymoma EL-4 cells; [5]) was 1/6. The “extension of lifetime in combination with cytostatics” value (Thymoma EL-4 cells; mice with Thymoma EL-4) was 15 days, the “increase in lifetime versus control” value (Thymoma EL-4 cells; mice with Thymoma EL-4) was 4 days and the tumor growth (Thymoma EL-4 cells; thymoma cells incubated with H-Ile-Glu-Trp-OH, then OU) was “depression of the tumor growth on the 12th day is most definite”.
